By Papp is commonly meant the rate of passage across a membrane or cell layer, normalised by area and donor concentration. The term efflux ratio denotes a quotient of directional permeabilities that is used to spot active efflux.

Series [1] can be described thus: PK (Free Brain-to-Free Plasma Ratio) (Mouse). Format: in vivo. The settings on record: brain and plasma, male CD-1 mice, oral gavage 10 mg/kg, sampling 2, 4, 8, 12 and 24 hours, (B/P)*(Bfu/Pfu). The method, then:
The ability of representative compounds to penetrate the BBB in mice was determined by evaluating the unbound brain-to-unbound plasma (also referred to as free brain-to-free plasma) concentration ratio in male CD-1 mice.
Brain compound levels were generated from oral mouse PK dosing with typical sampling times of 2, 4, 8, 12 and 24 hours post oral gavage dosing at 10 mg/kg. Brain samples were stored at −20±5° C. prior to analysis. Concentrations of test compound in mouse brain homogenate were determined by liquid chromatography tandem mass spectrometry (LC-MS/MS) following protein precipitation with acetonitrile. A 12-point calibration curve, ranging from 0.5 to 10,000 ng/mL, was prepared in duplicate. A solution of 400 μg/mL of test compound in dimethyl sulfoxide (DMSO) was serially diluted (3-fold) in 100% DMSO, and then 2.5 μL of each standard solution was added to 100 μL of naïve male CD-1 mice brain homogenate. To mimic the extraction in the standard curve, 2.5 μL of DMSO was added to all test samples. Both calibration and test brain homogenate samples were spiked with 10 μL of an IS (1 μg/mL of a structural analog). Brain homogenate was generated by adding 0.75 mL of 4:1 water:MeOH to each brain sample followed by homogenization for 1 minute with bead beater tubes a 6 m/s using an MP Fast Prep-24®. Proteins were precipitated from 100 μL of brain homogenate sample by the addition of 300 μL of acetonitrile. Samples were vortex-mixed for 5 minutes and spun in an Allegra X-12R centrifuge (Beckman Coulter, Fullerton, CA; SX4750A rotor) for 15 min at about 1,500×g at 4° C. A 100 μL aliquot of each supernatant was transferred via a 550 μL Personal Pipettor (Apricot Designs, Monrovia, CA) to 96-well plates and diluted 1:1 with HPLC grade water. The resulting plates were sealed with aluminum for LC-MS/MS analysis.
Brain-to-plasma ratios were calculated using the concentration of compound measured in the brain divided by the concentration of compound measured in the plasma. Brain-to-plasma ratios were always generated from a single animal and time point. Free brain-to-free plasma ratios were calculated by multiplying the brain-to-plasma ratio by the in vitro brain homogenate free fraction divided by the in vitro plasma free fraction using the following equation: (B/P)*(Bfu/Pfu).

A short description of series [2]: MDR1 LLC-PK1 and BCRP MDCKII Permeability Assay: permeability coefficient (Papp). Format: in vitro ADME. The settings on record: MDCK, test article 1 μM, 37° C. In outline: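 Bidirectional (A to B, B to A) transport of test article (1 μM, 1% organic) across MDR1-transfected LLC-PK1 or BCRP-transfected MDCKII (canine P-gp knockout) monolayers, 2 h at 37° C., 5% CO2, in triplicate. Lucifer yellow monitored monolayer integrity. Concentrations measured by LC-MS/MS against labetalol internal standard.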

Another series concerns the target T1, P-gp (MDR1) (Homo sapiens, UniProt P08183).
T1 construct: expressed in transfected cells; host or cells: LLC-PK1 (porcine kidney) cells transfected with MDR1
Description: Efflux ratio in MDR1 transfected LLC-PK1 cells. Format: in vitro ADME. To be noted: pig, Papp(B−A)/Papp(A−B). Put shortly: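 LLC-PK1 cells transfected with MDR1, test article at 1 μM (1% organic), transport measured A→B and B→A over 2 h at 37° C. Monolayer integrity checked with lucifer yellow, compound quantified by LC-MS/MS. Efflux ratio = Papp(B−A)/Papp(A−B).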

T1 sequence (P08183 whole entry): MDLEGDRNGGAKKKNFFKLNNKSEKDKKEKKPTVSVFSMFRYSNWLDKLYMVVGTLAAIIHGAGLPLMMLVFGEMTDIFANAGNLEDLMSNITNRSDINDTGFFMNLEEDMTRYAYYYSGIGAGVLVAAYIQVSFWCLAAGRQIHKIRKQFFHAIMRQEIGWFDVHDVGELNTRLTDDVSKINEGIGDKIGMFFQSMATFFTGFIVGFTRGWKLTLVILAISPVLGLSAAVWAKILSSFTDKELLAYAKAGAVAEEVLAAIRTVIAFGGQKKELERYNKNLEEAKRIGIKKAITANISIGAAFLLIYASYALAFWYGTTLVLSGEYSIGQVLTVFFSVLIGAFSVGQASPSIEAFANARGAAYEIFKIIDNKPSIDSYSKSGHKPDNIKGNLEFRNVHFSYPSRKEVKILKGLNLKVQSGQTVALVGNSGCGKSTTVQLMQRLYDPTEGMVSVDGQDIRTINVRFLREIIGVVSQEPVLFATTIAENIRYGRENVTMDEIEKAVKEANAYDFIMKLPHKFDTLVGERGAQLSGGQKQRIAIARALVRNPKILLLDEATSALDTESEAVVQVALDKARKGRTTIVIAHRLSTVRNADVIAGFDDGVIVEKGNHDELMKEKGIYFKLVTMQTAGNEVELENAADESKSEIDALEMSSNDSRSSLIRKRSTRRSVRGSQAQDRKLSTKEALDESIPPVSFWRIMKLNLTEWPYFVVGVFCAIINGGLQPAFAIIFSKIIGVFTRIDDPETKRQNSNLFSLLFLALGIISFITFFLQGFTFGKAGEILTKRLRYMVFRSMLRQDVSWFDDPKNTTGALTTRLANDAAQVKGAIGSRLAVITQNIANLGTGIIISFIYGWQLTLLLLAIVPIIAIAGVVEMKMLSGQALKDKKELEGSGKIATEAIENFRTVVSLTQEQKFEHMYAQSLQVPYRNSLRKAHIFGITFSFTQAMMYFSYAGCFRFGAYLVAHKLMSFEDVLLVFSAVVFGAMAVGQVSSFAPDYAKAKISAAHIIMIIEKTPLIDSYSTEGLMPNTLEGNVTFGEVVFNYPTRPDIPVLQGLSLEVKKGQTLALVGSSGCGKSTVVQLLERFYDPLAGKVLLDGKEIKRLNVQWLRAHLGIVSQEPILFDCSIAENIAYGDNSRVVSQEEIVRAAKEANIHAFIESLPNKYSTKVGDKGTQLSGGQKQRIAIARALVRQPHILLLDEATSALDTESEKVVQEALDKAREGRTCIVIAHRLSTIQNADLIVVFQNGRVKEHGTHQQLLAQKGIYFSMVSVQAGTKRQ

On to `CSc1ccc(Nc2c3c(cc(=O)n2C)CCN(OCCO)C3=O)c(F)c1` [Example 6, 8-((2-fluoro-4-(methylthio)phenyl)amino)-2-(2-hydroxyethoxy)-7-methyl-3,4-dihydro-2,7-naphthyridine-1,6(2H,7H)-dione], for which the Kp,uu (unbound brain-to-unbound plasma ratio) in series [1] lay in the range of 0.88 to 1.26. The Papp at 2 h, 1 μM in series [2] was determined as 32.1 ×10⁻⁶ cm/s. Also, the efflux ratio at 2 h, 1 μM at P-gp (MDR1) was found to be 3.4.

On to `Cn1c(Nc2ccc(Br)cc2F)c2c(cc1=O)CCN(OCCO)C2=O` [Example 7, 8-((4-bromo-2-fluorophenyl)amino)-2-(2-hydroxyethoxy)-7-methyl-3,4-dihydro-2,7-naphthyridine-1,6(2H,7H)-dione], for which the Kp,uu (unbound brain-to-unbound plasma ratio) in series [1] is 0.62 to 1.06. In series [2], the Papp at 2 h, 1 μM is 34.5 ×10⁻⁶ cm/s. At P-gp (MDR1), the efflux ratio at 2 h, 1 μM is 5.4.

With `Cn1c(Nc2ccc(I)cc2F)c2c(cc1=O)CCN(OCCO)C2=O` [Example 8, 8-((2-fluoro-4-iodophenol)amino)-2-(2-hydroxyethoxy)-7-methyl-3,4-dihydro-2,7-naphthyridine-1,6(2H,7H)-dione], in series [1], the Kp,uu (unbound brain-to-unbound plasma ratio) was in the range of 1.01 to 16.1. The compound further yielded a Papp at 2 h, 1 μM in series [2] of 34.2 ×10⁻⁶ cm/s. Further, the efflux ratio at 2 h, 1 μM on P-gp (MDR1) was determined as 7.1.

For the compound `CCc1ccc(Nc2c3c(cc(=O)n2C)CCN(OCCO)C3=O)c(F)c1` [Example 14, 8-((4-ethyl-2-fluorophenyl)amino)-2-(2-hydroxyethoxy)-7-methyl-3,4-dihydro-2,7-naphthyridine-1,6(2H,7H)-dione], the Kp,uu (unbound brain-to-unbound plasma ratio) in series [1] lay in the range of 0.57 to 1.58. Moreover, the Papp at 2 h, 1 μM in series [2] is 31.1 ×10⁻⁶ cm/s. The efflux ratio at 2 h, 1 μM on P-gp (MDR1) stood at 2.7.

Take `Cn1c(Nc2ccc(OC(F)F)cc2F)c2c(cc1=O)CCN(OCCO)C2=O` [Example 22, 8-((4-(difluoromethoxy)-2-fluorophenyl)amino)-2-(2-hydroxyethoxy)-7-methyl-3,4-dihydro-2,7-naphthyridine-1,6(2H,7H)-dione]: the Kp,uu (unbound brain-to-unbound plasma ratio) in series [1] was 0.33 to 2.92. Moreover, in series [2], the apparent permeability (Papp) at 2 h, 1 μM stood at 24.6 ×10⁻⁶ cm/s. Besides, the efflux ratio at 2 h, 1 μM on P-gp (MDR1) amounted to 6.2.

With `Cc1c2c(c(Nc3ccc(Br)cc3F)n(C)c1=O)C(=O)N(OCCO)CC2` [Example 36, 8-((4-bromo-2-fluorophenyl)amino)-2-(2-hydroxyethoxy)-5,7-dimethyl-3,4-dihydro-2,7-naphthyridine-1,6(2H,7H)-dione], the Kp,uu (unbound brain-to-unbound plasma ratio) in series [1] lay within 0.83 to 2.09. This compound yielded a Papp at 2 h, 1 μM in series [2] of 31.1 ×10⁻⁶ cm/s. Also, the efflux ratio at 2 h, 1 μM at P-gp (MDR1) was 2.9.
